According to patent publication US20080293771A1, “AZACYCLYLBENZAMIDE DERIVATIVES AS HISTAMINE-3 ANTAGONISTS” (Wyeth, priority 2007, published 2008):
Counter-ions that a name gives are not always drawn.

| melting point | SMILES |
| --- | --- |
| 184 to 185 °C | Cc1nc2ccccc2n1-c1ccc(C(=O)N(C)[C@@H]2CCN(CC3CCCCC3)C2)cc1 (as salt: hydrochloride) |
| 181 to 183 °C | Cc1nc2ccccc2n1-c1ccc(C(=O)N(C)[C@@H]2CCN(C(C)C)C2)cc1 (as salt: hydrochloride) |
| 175 to 176 °C | Cc1nc2ccccc2n1-c1ccc(C(=O)N(C)[C@@H]2CCN(C3CCC3)C2)cc1 (as salt: hydrochloride) |
| 186 to 187 °C | Cc1nc2ccccc2n1-c1ccc(C(=O)N(C)[C@@H]2CCN(C3CCCC3)C2)cc1 (as salt: hydrochloride) |
| 200 to 202 °C | Cc1nc2ccccc2n1-c1ccc(C(=O)N(C)[C@@H]2CCN(C3CCOCC3)C2)cc1 (as salt: hydrochloride) |
| 205 to 207 °C | Cc1nc2ccccc2n1-c1ccc(C(=O)N(C)[C@@H]2CCN(C3CC4CCC3C4)C2)cc1 (some centres unmarked) (as salt: hydrochloride) |
| 257 to 259 °C | Cc1nc2ccccc2n1-c1ccc(C(=O)N(C)[C@@H]2CCN(C3C4CC5CC(C4)CC3C5)C2)cc1 (some centres unmarked) (as salt: hydrochloride) |
| 190 to 192 °C | Cc1nc2ccccc2n1-c1ccc(C(=O)N(C)[C@H]2CCN(C(C)C)C2)cc1 (as salt: hydrochloride) |
| 184 to 185 °C | Cc1nc2ccccc2n1-c1ccc(C(=O)N(C)[C@H]2CCN(C3CCC3)C2)cc1 (as salt: hydrochloride) |
| 165 to 166 °C | Cc1nc2ccccc2n1-c1ccc(C(=O)N(C)[C@H]2CCN(C3CCCC3)C2)cc1 (as salt: hydrochloride) |
| 170 to 172 °C | Cc1nc2ccccc2n1-c1ccc(C(=O)N(C)[C@H]2CCN(C3CCCCC3)C2)cc1 (as salt: hydrochloride) |
| 173 to 175 °C | Cc1nc2ccccc2n1-c1ccc(C(=O)N(C)[C@H]2CCN(C3CCC(C)C3)C2)cc1 (some centres unmarked) (as salt: hydrochloride) |
| 175 to 177 °C | Cc1nc2ccccc2n1-c1ccc(C(=O)N(C)[C@H]2CCN(C3CC[C@@H](C)C3)C2)cc1 (some centres unmarked) (as salt: hydrochloride) |
| 195 to 196 °C | Cc1nc2ccccc2n1-c1ccc(C(=O)N(C)[C@H]2CCN(C3CCCCC3C)C2)cc1 (some centres unmarked) (as salt: hydrochloride) |
| 187 to 189 °C | Cc1nc2ccccc2n1-c1ccc(C(=O)N(C)[C@H]2CCN(C3CCC[C@@H](C)C3)C2)cc1 (some centres unmarked) (as salt: hydrochloride) |
| 181 to 183 °C | Cc1nc2ccccc2n1-c1ccc(C(=O)N(C)[C@H]2CCN(C3CCCC(C)C3)C2)cc1 (some centres unmarked) (as salt: hydrochloride) |
| 179 to 180 °C | Cc1nc2ccccc2n1-c1ccc(C(=O)N(C)[C@H]2CCN(CC3CC3)C2)cc1 (as salt: hydrochloride) |
| 189 to 190 °C | Cc1nc2ccccc2n1-c1ccc(C(=O)N(C)[C@@H]2CCN(CC(C)C)C2)cc1 (as salt: hydrochloride) |
| 193 to 194 °C | Cc1nc2ccccc2n1-c1ccc(C(=O)N(C)[C@@H]2CCN(C3CCCCC3)C2)cc1 (as salt: hydrochloride) |
| 185 to 186 °C | Cc1nc2ccccc2n1-c1ccc(C(=O)N(C)[C@@H]2CCN(CC3CC3)C2)cc1 (as salt: hydrochloride) |
| 190 to 192 °C | Cc1nc2ccccc2n1-c1ccc(C(=O)N(C)[C@@H]2CCN(CC3CCCC3)C2)cc1 (as salt: hydrochloride) |
| 219 to 221 °C | Cc1nc2ccccc2n1-c1ccc(C(=O)N(C)C2CCNCC2)cc1 (as salt: hydrochloride) [Example 30, N-Methyl-4-(2-methylbenzimidazol-1-yl)-N-piperidin-4-yl-benzamide Hydrochloride] |

| melting point | SMILES |
| --- | --- |
| 282 to 284 °C | Cc1nc2ccccc2n1-c1ccc(C(=O)N(C)C2CCN(C(C)C)CC2)cc1 (as salt: hydrochloride) [Example 31, N-(1-isopropylpiperidin-4-yl)-N-methyl-4-(2-methyl-1H-benzimidazol-1-yl)benzamide] |
| 270 °C (dec.) | Cc1nc2ccccc2n1-c1ccc(C(=O)N(C)C2CCN(C3CCCC3)CC2)cc1 (as salt: hydrochloride) [Example 32, N-(1-cyclopentylpiperidin-4-yl)-N-methyl-4-(2-methyl-1H-benzimidazol-1-yl)benzamide] |
| 285 °C (dec.) | Cc1nc2ccccc2n1-c1ccc(C(=O)N(C)C2CCN(C3CCCCC3)CC2)cc1 (as salt: hydrochloride) [Example 33, N-(1-cyclohexylpiperidin-4-yl)-N-methyl-4-(2-methyl-1H-benzimidazol-1-yl)benzamide] |
| 280 °C (dec.) | Cc1nc2ccccc2n1-c1ccc(C(=O)N(C)C2CCN(C3CCC3)CC2)cc1 (as salt: hydrochloride) [Example 34, N-(1-cyclobutylpiperidin-4-yl)-N-methyl-4-(2-methyl-1H-benzimidazol-1-yl)benzamide] |
| 126 to 128 °C | Cc1nc2ccccc2n1Cc1ccc(C(=O)N(C)[C@@H]2CCNC2)cc1 (as salt: hydrochloride) [Example 35, N-Methyl-4-[(2-methylbenzimidazol-1-yl)methyl]-N—(R)-pyrrolidin-3-yl-benzamide Hydrochloride] |
| 150 to 152 °C | CN(C(=O)c1ccc(Cn2cnc3ccccc32)cc1)[C@@H]1CCNC1 (as salt: hydrochloride) [Example 36, (R)-4-((1H-benzo[d]imidazol-1-yl)methyl)-N-methyl-N-(pyrrolidin-3-yl)benzamide Hydrochloride] |
| 188 to 190 °C | Cc1nc2ccccc2n1Cc1ccc(C(=O)N(C)[C@@H]2CCN(C3CCCCC3)C2)cc1 (as salt: hydrochloride) [Example 40, N-[(3R)-1-cyclohexylpyrrolidin-3-yl]-N-methyl-4-[(2-methyl-1H-benzimidazol-1-yl)methyl]benzamide] |
| 200 to 202 °C | Cc1nc2ccccc2n1Cc1ccc(C(=O)N(C)C2CCN(C(C)C)CC2)cc1 (as salt: hydrochloride) [Example 46, N-(1-isopropylpiperidin-4-yl)-N-methyl-4-[(2-methyl-1H-benzimidazol-1-yl)methyl]benzamide] |
| 280 °C (dec.) | Cc1nc2ccccc2n1Cc1ccc(C(=O)N(C)C2CCN(C3CCC3)CC2)cc1 (as salt: hydrochloride) [Example 47, N-(1-cyclobutylpiperidin-4-yl)-N-methyl-4-[(2-methyl-1H-benzimidazol-1-yl)methyl]benzamide] |
| 280 °C (dec.) | Cc1nc2ccccc2n1Cc1ccc(C(=O)N(C)C2CCN(C3CCCC3)CC2)cc1 (as salt: hydrochloride) [Example 48, N-(1-cyclopentylpiperidin-4-yl)-N-methyl-4-[(2-methyl-1H-benzimidazol-1-yl)methyl]benzamide] |
| 185 to 187 °C | CC(C)N1CCC(N(C)C(=O)c2ccc(Cn3cnc4ccccc43)cc2)CC1 (as salt: hydrochloride) [Example 49, 4-(1H-benzimidazol-1-ylmethyl)-N-(1-isopropylpiperidin-4-yl)-N-methylbenzamide] |
| 238 to 240 °C | CN(C(=O)c1ccc(Cn2cnc3ccccc32)cc1)C1CCN(C2CCC2)CC1 (as salt: hydrochloride) [Example 50, 4-(1H-benzimidazol-1-ylmethyl)-N-(1-cyclobutylpiperidin-4-yl)-N-methylbenzamide] |
| 248 to 250 °C | CN(C(=O)c1ccc(Cn2cnc3ccccc32)cc1)C1CCN(C2CCCC2)CC1 (as salt: hydrochloride) [Example 51, 4-(1H-benzimidazol-1-ylmethyl)-N-(1-cyclopentylpiperidin-4-yl)-N-methylbenzamide] |
| 230 to 232 °C | Cc1nc2cc(C#N)ccc2n1-c1ccc(C(=O)N(C)[C@@H]2CCN(C(C)C)C2)cc1 (as salt: hydrochloride) [Example 54, 4-(5-cyano-2-methyl-1H-benzimidazol-1-yl)-N-[(3R)-1-isopropylpyrrolidin-3-yl]-N-methylbenzamide] |
| 240 to 242 °C | Cc1nc2cc(C#N)ccc2n1-c1ccc(C(=O)N(C)[C@@H]2CCN(C3CCC3)C2)cc1 (as salt: hydrochloride) [Example 55, 4-(5-cyano-2-methyl-1H-benzimidazol-1-yl)-N-[(3R)-1-cyclobutylpyrrolidin-3-yl]-N-methylbenzamide] |
| 185 to 187 °C | Cc1nc2cc(C#N)ccc2n1-c1ccc(C(=O)N(C)[C@@H]2CCN(C3CCCC3)C2)cc1 (as salt: hydrochloride) [Example 56, 4-(5-cyano-2-methyl-1H-benzimidazol-1-yl)-N-[(3R)-1-cyclopentylpyrrolidin-3-yl]-N-methylbenzamide] |
| 227 to 228 °C | CC(C)N1CC[C@@H](N(C)C(=O)c2ccc(-n3cc4ccccc4n3)cc2)C1 (as salt: hydrochloride) [Example 61, 4-(2H-indazol-2-yl)-N-[(3R)-1-isopropylpyrrolidin-3-yl]-N-methylbenzamide] |
| 163 to 165 °C | CN(C(=O)c1ccc(-n2cc3ccccc3n2)cc1)[C@@H]1CCN(C2CCC2)C1 (as salt: hydrochloride) [Example 62, N-[(3R)-1-cyclobutylpyrrolidin-3-yl]-4-(2H-indazol-2-yl)-N-methylbenzamide] |
| 216 to 218 °C | CN(C(=O)c1ccc(-n2cc3ccccc3n2)cc1)[C@@H]1CCN(C2CCCC2)C1 (as salt: hydrochloride) [Example 63, N-[(3R)-1-cyclopentylpyrrolidin-3-yl]-4-(2H-indazol-2-yl)-N-methylbenzamide] |
| 175 to 177 °C | CC(C)N1CC[C@@H](N(C)C(=O)c2ccc(-n3ncc4ccccc43)cc2)C1 (as salt: hydrochloride) [Example 64, 4-(1H-indazol-1-yl)-N-[(3R)-1-isopropylpyrrolidin-3-yl]-N-methylbenzamide] |
| 163 to 165 °C | CN(C(=O)c1ccc(-n2ncc3ccccc32)cc1)[C@@H]1CCN(C2CCC2)C1 (as salt: hydrochloride) [Example 65, N-[(3R)-1-cyclobutylpyrrolidin-3-yl]-4-(1H-indazol-1-yl)-N-methylbenzamide] |
| 151 to 152 °C | CN(C(=O)c1ccc(-n2ncc3ccccc32)cc1)[C@@H]1CCN(C2CCCC2)C1 (as salt: hydrochloride) [Example 66, N-[(3R)-1-cyclopentylpyrrolidin-3-yl]-4-(1H-indazol-1-yl)-N-methylbenzamide] |
